# Measurements as given in US20090226527A1, “Particulate-stabilized injectable pharmacutical compositions of posaconazole” (priority 2004, published 2009).
# Tested on: infectious agents (strains tested)
# Test: organism not typed
# Format: cell-based
structure (smiles),measurement,setting,value
C[C@@H](c1ncncc1F)[C@](O)(Cn1cncn1)c1ccc(F)cc1F [Voriconazole],MIC,"Absidia spp, read-out: Geometric Mean MIC",40.3 µg/mL
same,MIC,"Absidia spp, read-out: MIC[90]",8 to 128 µg/mL
same,MIC,"Apophysomyces spp, read-out: Geometric Mean MIC",42.2 µg/mL
same,MIC,"Apophysomyces spp, read-out: MIC[90]",16 to 128 µg/mL
same,MIC,"Aspergillus flavus, read-out: Geometric Mean MIC",0.339 µg/mL
same,MIC,"Aspergillus flavus, read-out: MIC[90]",1 µg/mL
same,MIC,"Aspergillus fumigatus, read-out: Geometric Mean MIC",0.282 µg/mL
same,MIC,"Aspergillus fumigatus, read-out: MIC[90]",0.5 µg/mL
same,MIC,"Aspergillus nidulans, read-out: Geometric Mean MIC",0.07 µg/mL
same,MIC,"Aspergillus nidulans, read-out: MIC[90]",0.031 to 0.125 µg/mL
same,MIC,"Aspergillus niger, read-out: Geometric Mean MIC",0.48 µg/mL
same,MIC,"Aspergillus niger, read-out: MIC[90]",2 µg/mL
same,MIC,"Aspergillus sydowii, read-out: Geometric Mean MIC",0.397 µg/mL
same,MIC,"Aspergillus sydowii, read-out: MIC[90]",0.25 to 1 µg/mL
same,MIC,"Aspergillus terreus, read-out: Geometric Mean MIC",0.312 µg/mL
same,MIC,"Aspergillus terreus, read-out: MIC[90]",0.5 µg/mL
same,MIC,"Aspergillus ustus, read-out: Geometric Mean MIC",1.19 µg/mL
same,MIC,"Aspergillus ustus, read-out: MIC[90]",0.25 to 2 µg/mL
same,MIC,"Bipolaris spp, read-out: Geometric Mean MIC",1 µg/mL
same,MIC,"Bipolaris spp, read-out: MIC[90]",1 µg/mL
same,MIC,"Bjerkandera adusta, read-out: Geometric Mean MIC",0.216 µg/mL
same,MIC,"Bjerkandera adusta, read-out: MIC[90]",0.25 µg/mL
same,MIC,"Candida albicans, read-out: Geometric Mean MIC",0.021 µg/mL
same,MIC,"Candida albicans, read-out: MIC[90]",0.063 µg/mL
same,MIC,"Candida dubliniensis, read-out: Geometric Mean MIC",0.028 µg/mL
same,MIC,"Candida dubliniensis, read-out: MIC[90]",0.125 µg/mL
same,MIC,"Candida tropicalis, read-out: Geometric Mean MIC",0.075 µg/mL
same,MIC,"Candida tropicalis, read-out: MIC[90]",0.5 µg/mL
same,MIC,"Clavispora lusitaniae, Candida lusitaniae, read-out: Geometric Mean MIC",0.023 µg/mL
same,MIC,"Clavispora lusitaniae, Candida lusitaniae, read-out: MIC[90]",0.063 µg/mL
same,MIC,"Cryptococcus neoformans, read-out: Geometric Mean MIC",0.054 µg/mL
same,MIC,"Cryptococcus neoformans, read-out: MIC[90]",0.125 µg/mL
same,MIC,"Curvularia spp, read-out: Geometric Mean MIC",0.125 µg/mL
same,MIC,"Curvularia spp, read-out: MIC[90]",0.125 µg/mL
same,MIC,"Debaryomyces hansenii, Candida famata, read-out: Geometric Mean MIC",0.072 µg/mL
same,MIC,"Debaryomyces hansenii, Candida famata, read-out: MIC[90]",0.008 to 0.5 µg/mL
same,MIC,"Diutina rugosa, Candida rugosa, read-out: Geometric Mean MIC",0.072 µg/mL
same,MIC,"Diutina rugosa, Candida rugosa, read-out: MIC[90]",0.5 µg/mL
same,MIC,"Dujonia zeylanoides, Candida zeylanoides, read-out: Geometric Mean MIC",0.039 µg/mL
same,MIC,"Dujonia zeylanoides, Candida zeylanoides, read-out: MIC[90]",0.008 to 0.125 µg/mL
same,MIC,"Epidermophyton floccosum, read-out: Geometric Mean MIC",0.015 µg/mL
same,MIC,"Epidermophyton floccosum, read-out: MIC[90]",0.016 µg/mL
same,MIC,"Exophiala dermatidis, read-out: Geometric Mean MIC",0.063 µg/mL
same,MIC,"Exophiala dermatidis, read-out: MIC[90]",0.063 µg/mL
same,MIC,"Exophiala dermatitidis, Wangiella dermatitidis, read-out: Geometric Mean MIC",1 µg/mL
same,MIC,"Exophiala dermatitidis, Wangiella dermatitidis, read-out: MIC[90]",1 µg/mL
same,MIC,"Exophiala jeanselmei, read-out: Geometric Mean MIC",0.794 µg/mL
same,MIC,"Exophiala jeanselmei, read-out: MIC[90]",0.5 to 1 µg/mL
same,MIC,"Fonsecae pedrosoi, read-out: Geometric Mean MIC",0.5 µg/mL
same,MIC,"Fonsecae pedrosoi, read-out: MIC[90]",0.5 µg/mL
same,MIC,"Fusarium spp, read-out: Geometric Mean MIC",4.42 µg/mL
same,MIC,"Fusarium spp, read-out: MIC[90]",16 µg/mL
same,MIC,"Kluyveromyces marxianus, Candida kefyr, read-out: Geometric Mean MIC",0.031 µg/mL
same,MIC,"Kluyveromyces marxianus, Candida kefyr, read-out: MIC[90]",0.031 µg/mL
same,MIC,"Lodderomyces parapsilosis, Candida parapsilosis, read-out: Geometric Mean MIC",0.036 µg/mL
same,MIC,"Lodderomyces parapsilosis, Candida parapsilosis, read-out: MIC[90]",0.125 µg/mL
same,MIC,"Meyerozyma guilliermondii, Candida guilliermondii, read-out: Geometric Mean MIC",0.112 µg/mL
same,MIC,"Meyerozyma guilliermondii, Candida guilliermondii, read-out: MIC[90]",8 µg/mL
same,MIC,"Microsporum canis, read-out: Geometric Mean MIC",0.018 µg/mL
same,MIC,"Microsporum canis, read-out: MIC[90]",0.031 µg/mL
same,MIC,"Mucor spp, read-out: Geometric Mean MIC",24.7 µg/mL
same,MIC,"Mucor spp, read-out: MIC[90]",1 to 128 µg/mL
same,MIC,"Nakaseomyces glabratus, Candida glabrata, read-out: Geometric Mean MIC",0.305 µg/mL
same,MIC,"Nakaseomyces glabratus, Candida glabrata, read-out: MIC[90]",2 µg/mL
same,MIC,"Paecilomyces spp, read-out: Geometric Mean MIC",0.324 µg/mL
same,MIC,"Paecilomyces spp, read-out: MIC[90]",0.031 to 2 µg/mL
same,MIC,"Papiliotrema laurentii, Cryptococcus laurentii, read-out: Geometric Mean MIC",0.25 µg/mL
same,MIC,"Papiliotrema laurentii, Cryptococcus laurentii, read-out: MIC[90]",0.25 µg/mL
same,MIC,"Penicillium spp, read-out: Geometric Mean MIC",0.622 µg/mL
same,MIC,"Penicillium spp, read-out: MIC[90]",2 µg/mL
same,MIC,"Pichia kudriavzevii, Candida krusei, read-out: Geometric Mean MIC",0.346 µg/mL
same,MIC,"Pichia kudriavzevii, Candida krusei, read-out: MIC[90]",0.5 µg/mL
same,MIC,"Rhizomucor spp, read-out: Geometric Mean MIC",2 µg/mL
same,MIC,"Rhizomucor spp, read-out: MIC[90]",2 µg/mL
same,MIC,"Rhizopus spp, read-out: Geometric Mean MIC",8 µg/mL
same,MIC,"Rhizopus spp, read-out: MIC[90]",1 to 32 µg/mL
same,MIC,"Saccharomyces cerevisiae, read-out: Geometric Mean MIC",0.05 µg/mL
same,MIC,"Saccharomyces cerevisiae, read-out: MIC[90]",0.125 µg/mL
same,MIC,"Scedosporium apiospermum, read-out: Geometric Mean MIC",0.098 µg/mL
same,MIC,"Scedosporium apiospermum, read-out: MIC[90]",0.5 µg/mL
same,MIC,"Scedosporium boydii, Pseudallescheria boydii, read-out: Geometric Mean MIC",0.25 µg/mL
same,MIC,"Scedosporium boydii, Pseudallescheria boydii, read-out: MIC[90]",0.125 to 0.5 µg/mL
same,MIC,"Trichophyton mentagrophytes, read-out: Geometric Mean MIC",0.038 µg/mL
same,MIC,"Trichophyton mentagrophytes, read-out: MIC[90]",0.25 µg/mL
same,MIC,"Trichophyton rubrum, read-out: Geometric Mean MIC",0.021 µg/mL
same,MIC,"Trichophyton rubrum, read-out: MIC[90]",0.063 µg/mL
same,MIC,"Trichophyton tonsurans, read-out: Geometric Mean MIC",0.043 µg/mL
same,MIC,"Trichophyton tonsurans, read-out: MIC[90]",0.063 µg/mL
same,MIC,"Trichosporon spp, read-out: Geometric Mean MIC",0.125 µg/mL
same,MIC,"Trichosporon spp, read-out: MIC[90]",0.125 µg/mL
